This is an account of results in ChEMBL document CHEMBL1148110, “New lanostanoids from the fungus Ganoderma concinna” (J Nat Prod, 2002).

By IC50 is commonly meant the midpoint of a concentration-inhibition curve. High values mean lower potency, low ones higher potency.

The test system of assay [1] is HL-60. Nature of the assay: Induction of apoptosis in human HL60 cells assessed as intranucleosomal hydrolysis of chromatin at 30 uM after 24 hrs by agarose gel electrophoresis. The format is functional, cell-based.
In assay [2] the test system is HL-60. Kind of assay: Induction of apoptosis in human HL60 cells assessed as chromatin condensation and fragmentation at 30 uM after 24 hrs by quantitative fluorescent microscopy.
Assay [3] relates to HL-60. Kind of assay: Cytotoxicity against human HL60 cells after 24 hrs by MTT assay. The format is functional, cell-based. As to conditions: HL-60, 24 h. A general note: Formazan colour is commonly taken as a measure of viable cells.
Assay [4] concerns HL-60. Nature of the assay: Induction of apoptosis in human HL60 cells assessed as morphological changes at 30 uM after 24 hrs by Hoechst 33258 staining. The format is functional, cell-based.

The source made the active and inactive calls. No cut-off for these calls is given here.

As to `CC(=O)[C@H]1CC(=O)[C@@]2(C)[C@]34O[C@@]3(C(=O)C[C@]12C)[C@@]1(C)CCC(=O)C(C)(C)[C@@H]1CC4=O`, the outcome in the assay on HL-60 [1] was Active. Also, the Activity in the assay with HL-60 [2] worked out at 12%.

For `C/C(C=O)=C/CC[C@@H](C)[C@H]1CC[C@@]2(C)C3=CC[C@H]4C(C)(C)[C@@H](O)CC[C@]4(C)C3=CC[C@]12C`, the result with HL-60 [1] was Active. Further, the Activity in the assay on HL-60 [2] turned out to be 15%.

Turning to `C/C(=C/CC[C@@H](C)[C@H]1C[C@H](O)[C@@]2(C)C3=CC[C@H]4C(C)(C)C(=O)CC[C@]4(C)C3=CC[C@]12C)CO`, the outcome in the assay with HL-60 [1] and with HL-60 [4] was Active. Also, half-maximal inhibition in the assay on HL-60 [3] (IC50) was put at 15.7 µM. For the same compound, the Activity in the assay with HL-60 [2] came to 62%.
